# Assay results: publication PMC10895678 (Journal of Medicinal Chemistry, 2024)
# Several values for one entry are separate records, joined by “and”; a condition that tells them apart may be missing. Equal entries are not always repeated. Where two headings read alike, the source gives them in different places.
# Tests used:
# [1] = Mouse PK, combined (cassette) dosing of BGAz-001–005; type: in vivo, KM mice; parameters: AUMC(0-t) / VRT(0-t) / λz: unit not given here; conditions: for MRT last: read-out: MRT(0-t); for MRT inf: read-out: MRT(0-∞); for Vd/F: read-out: Vz/F
# From the text: Methods for combined single dosing (BGAz001–005) and dosing of single compounds multiple times (BGAz004 and BGAz005) are described in detail in the Supporting Information (PK Data).
# Report on PK Results of Combined Dosing with BGAz-001–005
# 1 Materials and instrument combined dosing
# An MS2 Turnover type oscillator was purchased from IKA Work’s Guangzhou (China), and a 5415R ChromatographicanalyseswereconductedusinganAgilent1290InfinityIIhighperformanceliquidchromatography andAgilentTechnologies6470TripleQuadLC/MS.Propranolol(≥90%inpurity,internalstandard,IS)waspurchased fromtheSigmaChemicalCo.(China).Formicacid(HPLCgrade)andmethanol(HPLCgrade)werepurchasedfrom DIKMACo.(China).Allchemicalsandsolventswereanalyticalgrade.WaterwaspurifiedusingaMillipore(AK,USA) laboratoryultra-purewatersystem(0.2μmfilter).
# KMmice,weighing25–35g(BeijingVitalRiverLaboratoryAnimalTechnologyCo.,Ltd.,China)wereutilisedforthe studies.The protocols were approved by the Animal Care and Use Committee, GIBH. Animals were maintained on standard animal chow and waterad libitum, in a climate-controlled room (23±1 °C 30–70% relative humidity, a minimumof tenexchangesof roomairperhouranda12hlight/darkcycle)foroneweekpriortoexperiments.
# 3 Pharmacokinetic studies
# Compounds BGAz-001 ，BGAz-002 ，BGAz-003 ，BGAz-004 and BGAz-005 were dissolved mixed in a solution containing DMSO (2%),ethanol (4%), Cremophor EL (4%) and ddH2O (90%); Pharmacokinetic propertiesof KM (male) were determined following IV, PO and IP administration. Animals were randomly distributed into three experimentalgroups(n=4).ThePOgroupwasgivenmixedsolutionwith5mg/kgbygastricgavage.TheIVgroup was dosed with mixed solution 1mg/kg byinjection into the tail vein. The IP group was dosed with mixed solution 1mg/kg by intraperitoneal injection. After single administration, whole blood samples (100 μL) were obtained from the orbital venousplexus atthe followingtime pointsafter dosing:5, 15,30 minand 1,3, 5,8, 24hour (PO and IP groups) and at the following time points after dosing 2, 10, 30min and 1, 3, 5, 8,24 hour (IV group). Wholeblood samples were collected in heparinised tubes. The plasma fraction was immediately separated by centrifugation. The micewerehumanelyeuthanasiabycarbondioxide24hoursafterexperimentwithoutpain.
# 4 Plasma sample and brain sample analysis
# 4.1 Standard curve sample preparation
# ThecompoundsweredissolvedinDMSO(2mg/mL)anddilutedwithtoseriesconcentration(methanol:H 2O,1:1,10 μL) and blank plasma (50 μL) were added to 1.5 mL tubes and vortexed for 3 min, then acetonitrile-containing internalstandard(150μL)wasaddedandvortexedforafurther5min,andsubsequentlyspuninacentrifugeat13000 […]
# 4.2 Plasma and preparation
# Plasmasampleswerepreparedusingaproteinprecipitationmethod.Solution(10μL,methanolH 2O,1:1)andplasma samples(50μL)wereaddedto1.5mLtubesandvortexfor3min,thenacetonitrile-containinginternalstandard(150 μL)wasaddedandvortexfor5min,andsubsequentlyspuninacentrifugeat13000× gfor40minat4°C.
# Aftercentrifugation,supernatant(100μL)wastransferto96wellplatesandanalysedbyLC-MS/MSusinganAgilent 1290InfinityIIHPLCandanAgilentTechnologies6470TripleQuadLC/MS.
# C. glutamicum pks13 = assay: MIC, resazurin assay, C. glutamicum pks13 deletion mutant; type: cell-based, Corynebacterium glutamicum; conditions: modified Gompertz function
# [2] = IP 1 mg/kg, cassette, mean of animals
# [3] = IV 1 mg/kg, cassette, mean of animals
# [4] = PO 5 mg/kg, cassette, mean of animals
# [5] = male, KM, mouse, plasma, IP 1 mg/kg, cassette
# [6] = male, KM, mouse, plasma, IP 1 mg/kg, cassette, mean of animals
# [7] = male, KM, mouse, plasma, IV 1 mg/kg, cassette
# [8] = male, KM, mouse, plasma, IV 1 mg/kg, cassette, mean of animals
# [9] = male, KM, mouse, plasma, PO 5 mg/kg, cassette
# [10] = male, KM, mouse, plasma, PO 5 mg/kg, cassette, mean of animals
structure (smiles),measurement,setting,value
FC(F)(F)Oc1ccc(C2CC(CN3CCCC3)N2Cc2ccccc2OC(F)(F)F)cc1 (stereo not shown) [BGAz-002],AUC(0-t),[1]; [2],390.877 µg
same,AUC(0-∞),[1]; [2],629.982 µg
same,AUMC(0-t),[1]; [2],3917.162 **μg
same,AUMC(0-∞),[1]; [2],17064.651 **μg
same,CLz/F,[1]; [2],1.79 L/kg
same,C_last,[1]; [2],8.556 µg
same,R_AUC(t/∞),[1]; [2],67.725%
same,VRT(0-t),[1]; [2],72.869 ^2
same,VRT(0-∞),[1]; [2],649.236 ^2
same,λz,[1]; [2],0.051 1/
same,AUC(0-∞),"[1]; IP 1 mg/kg, cassette, summary table",629.982 µg·h
same,AUC(0-t),[1]; [3],395.775 µg
same,AUC(0-∞),[1]; [3],440.39 µg
same,AUMC(0-t),[1]; [3],2604.325 **μg
same,AUMC(0-∞),[1]; [3],4336.305 **μg
same,CLz/F,[1]; [3],2.306 L/kg
same,C_last,[1]; [3],3.185 µg
same,R_AUC(t/∞),[1]; [3],89.5%
same,VRT(0-t),[1]; [3],48.868 ^2
same,VRT(0-∞),[1]; [3],164.25 ^2
same,Vz/F,[1]; [3],28.224 L/kg
same,λz,[1]; [3],0.099 1/
same,AUC(0-∞),"[1]; IV 1 mg/kg, cassette, summary table",440.39 µg·h
same,BA,"[1]; PO 5 mg/kg vs IV 1 mg/kg, cassette",57.59%
same,AUC(0-t),[1]; [4],642.368 µg
same,AUC(0-∞),[1]; [4],1268.031 µg
same,AUMC(0-t),[1]; [4],6099.109 **μg
same,AUMC(0-∞),[1]; [4],48726.538 **μg
same,CLz/F,[1]; [4],11.484 L/kg
same,C_last,[1]; [4],17.369 µg
same,R_AUC(t/∞),[1]; [4],64%
same,VRT(0-t),[1]; [4],48.138 ^2
same,VRT(0-∞),[1]; [4],1193.792 ^2
same,λz,[1]; [4],0.025 1/
same,AUC(0-∞),"[1]; PO 5 mg/kg, cassette, summary table",1268.03 µg·h
same,Cmax,"[1]; male, KM, mouse, plasma, ip, 1 mg/kg, IP 1 mg/kg, cassette, mean of animals, read-out: Cmax",40 ng/mL
same,Tmax,"[1]; male, KM, mouse, plasma, ip, 1 mg/kg, IP 1 mg/kg, cassette, mean of animals, read-out: Tmax",0.167 h
same,Cmax,"[1]; male, KM, mouse, plasma, ip, 1 mg/kg, IP 1 mg/kg, cassette, summary table, read-out: Cmax",40 ng/mL
same,half-life,"[1]; male, KM, mouse, plasma, ip, 1 mg/kg, IP 1 mg/kg, cassette, summary table, read-out: T1/2 (converted)",16.1 h
same,Tmax,"[1]; male, KM, mouse, plasma, ip, 1 mg/kg, IP 1 mg/kg, cassette, summary table, read-out: Tmax",0.167 h
same,Cmax,"[1]; male, KM, mouse, plasma, iv, 1 mg/kg, IV 1 mg/kg, cassette, mean of animals, read-out: Cmax",189 ng/mL
same,Tmax,"[1]; male, KM, mouse, plasma, iv, 1 mg/kg, IV 1 mg/kg, cassette, mean of animals, read-out: Tmax",0.033 h
same,Cmax,"[1]; male, KM, mouse, plasma, iv, 1 mg/kg, IV 1 mg/kg, cassette, summary table, read-out: Cmax",189 ng/mL
same,half-life,"[1]; male, KM, mouse, plasma, iv, 1 mg/kg, IV 1 mg/kg, cassette, summary table, read-out: T1/2 (converted)",8.35 h
same,Tmax,"[1]; male, KM, mouse, plasma, iv, 1 mg/kg, IV 1 mg/kg, cassette, summary table, read-out: Tmax",0.033 h
same,AUC(0-inf),"[1]; male, KM, mouse, plasma, po, 5 mg/kg, 5 mg/kg PO, cassette dosing, read-out: AUC0-inf",1270 ng·h/mL
same,Cmax,"[1]; male, KM, mouse, plasma, po, 5 mg/kg, 5 mg/kg PO, cassette dosing, read-out: Cmax (Mouse, P.O.)",53.9 ng/mL
same,half-life,"[1]; male, KM, mouse, plasma, po, 5 mg/kg, 5 mg/kg PO, cassette dosing, read-out: T1/2 (Mouse, P.O.) (converted)",24.9 h
same,Tmax,"[1]; male, KM, mouse, plasma, po, 5 mg/kg, 5 mg/kg PO, cassette dosing, read-out: Tmax (Mouse, P.O.)",1.87 h
same,Cmax,"[1]; male, KM, mouse, plasma, po, 5 mg/kg, PO 5 mg/kg, cassette, mean of animals, read-out: Cmax",53.9 ng/mL
same,Tmax,"[1]; male, KM, mouse, plasma, po, 5 mg/kg, PO 5 mg/kg, cassette, mean of animals, read-out: Tmax",1.88 h
same,Cmax,"[1]; male, KM, mouse, plasma, po, 5 mg/kg, PO 5 mg/kg, cassette, summary table, read-out: Cmax",53.9 ng/mL
same,half-life,"[1]; male, KM, mouse, plasma, po, 5 mg/kg, PO 5 mg/kg, cassette, summary table, read-out: T1/2 (converted)",24.9 h
same,Tmax,"[1]; male, KM, mouse, plasma, po, 5 mg/kg, PO 5 mg/kg, cassette, summary table, read-out: Tmax",1.88 h
same,concentration at 0.083 h,[1]; [5],37.4 ng/mL and 80 nM
same,concentration at 0.25 h,[1]; [5],80 nM and 38.8 ng/mL
same,concentration at 0.5 h,[1]; [5],70 nM and 32.6 ng/mL
same,concentration at 1 h,[1]; [5],50 nM and 25.8 ng/mL
same,concentration at 3 h,[1]; [5],50 nM and 24 ng/mL
same,concentration at 5 h,[1]; [5],40 nM and 17 ng/mL
same,concentration at 8 h,[1]; [5],30 nM and 15 ng/mL
same,concentration at 24 h,[1]; [5],30 nM and 12.4 ng/mL
same,MRT last,[1]; [6],10.1 h
same,MRT inf,[1]; [6],23.7 h
same,Vd/F,[1]; [6],36.8 L/kg
same,concentration at 0.033 h,"[1]; male, KM, mouse, plasma, IV 1 mg/kg, cassette, 0.033 h",189 ng/mL and 400 nM
same,concentration at 0.167 h,"[1]; male, KM, mouse, plasma, IV 1 mg/kg, cassette, 0.167 h",210 nM and 98.9 ng/mL
same,concentration at 0.5 h,[1]; [7],130 nM and 62.5 ng/mL
same,concentration at 1 h,[1]; [7],100 nM and 45.6 ng/mL
same,concentration at 3 h,[1]; [7],60 nM and 28.3 ng/mL
same,concentration at 5 h,[1]; [7],40 nM and 18.3 ng/mL
same,concentration at 8 h,[1]; [7],30 nM and 12.5 ng/mL
same,concentration at 24 h,[1]; [7],10 nM and 6.16 ng/mL
same,C0,[1]; [8],222 ng/mL
same,MRT last,[1]; [8],6.46 h
same,MRT inf,[1]; [8],9.9 h
same,concentration at 0.083 h,[1]; [9],16.4 ng/mL and 30 nM
same,concentration at 0.25 h,[1]; [9],50 nM and 25.1 ng/mL
same,concentration at 0.5 h,[1]; [9],80 nM and 37.7 ng/mL
same,concentration at 1 h,[1]; [9],100 nM and 49.3 ng/mL
same,concentration at 3 h,[1]; [9],100 nM and 49.4 ng/mL
same,concentration at 5 h,[1]; [9],80 nM and 40.1 ng/mL
same,concentration at 8 h,[1]; [9],80 nM and 36.7 ng/mL
same,concentration at 24 h,[1]; [9],50 nM and 22.9 ng/mL
same,MRT last,[1]; [10],7.92 h
same,MRT inf,[1]; [10],27.5 h
same,Vd/F,[1]; [10],104 L/kg
same,C. glutamicum pks13 MIC,C. glutamicum pks13,50
